According to US20080015251A1, “Means and method for treating lipotoxicity and other metabolically related phenomena” (Yissum Research Development Co., of The Hebrew University …, priority 2006, published 2008):
Entries after “also recorded” stand apart in the source; their conditions may differ. Marks after values point to notes of the source that are not given here.

Experiments:
[1] = tested on: J774.2 macrophages; test: Cell viability by propidium iodide exclusion (membrane integrity), flow cytometry; format: cell-based, Murine; conditions: for protection against TG-induced lipotoxicity (rate of cell death): AA 0.5 mM, resv 0.2 mM, querc 0.2 mM, lyc 10 AM, carot 10 AM, toc 0.2 mM, LA 0.25 mM, Se 1 AM (FIG. 8A)
Procedure: Murine J774.2 macrophages were cultured in RPMI medium enriched with 10% fetal calf serum, 1% glutamine, and 1% penicillin-streptomycin. […] Prior to experimental procedures, macrophages were seeded on 6-well plates at a concentration of 50,000 cells/ml.
The physiological range of TG in plasma is up to 1.5 mg/ml. […] Other agents, such as antioxidants or cycloheximide (CH), were added as specified in the relevant figure legends.
Cell membrane integrity was detected as previously described. Briefly, cells were stained with 2 Ag/ml propidium iodide (PI) and measured by flow cytometry, (FACS Calibur, Becton Dickinson, Calif.) at the following fluorescence setting: excitation at 488 nm and emission at 575 nm. Data were collected from 10,000 cells.

[2] = tested on: rat isolated hepatocytes; test: Nitrite in culture media (Griess reaction); format: cell-based; conditions: for effect on LE inhibition of nitrite levels: 0.1% LE, NAC 3 mmol/L, ascorbate 3 mmol/L, resveratrol 600 μmol/L
Procedure: (§1) Rotenone, S nitroso-N-acetyl-penicillamine (SNAP), buthionine sulfoximine (BSO), anti oxidants, or TNF-α were added to the culture medium in specific experiments. At the end of the experiment, the medium was collected and the cells were harvested for further assays.
Nitrite in culture media was measured by the Griess reaction (21). The values obtained were compared with standards of sodium nitrite dissolved in the cell culture media.

[3] = tested on: rat isolated hepatocytes; test: Reduced glutathione (GSH) by HPLC; format: cell-based
Procedure: GSH was measured using HPLC (15). […] Detection was made by an electrochemical detector. The results were adjusted to protein levels of the samples.

[4] = tested on: caspase-3; test: Caspase-3 (DEVDase) activity, Ac-DEVD-AMC substrate; format: cell-based, Murine; conditions: pretreatment for 24 h with CH (FIG. 6)
Procedure: For analysis of caspase activity, cells were incubated for 2 h in ice-cold PBS containing 0.5% Triton X-100 and 5 mM dithiothreitol (DTT). The suspension of permeabilized cells was agitated slightly and centrifuged at 14,000 g. The clear supernatant was tested for caspase-3 activity as previously described, using the caspase-3 substrate Ac-DEVD-AMC (Calbiochem, Darmstadt, Germany). Incubation was conducted in 200 Al of reaction mixture containing approximatelyl mg sample protein, in the dark, at 308 C for 4 h (linear phase of the reaction). Caspase-3 activity was expressed as arbitrary fluorescence units (AU) per mg. protein.

[5] = tested on: J774.2 macrophages; test: Intracellular ROS, H2DCF-DA fluorescent probe, FACS; format: cell-based, Murine; conditions: for ROS production in TG-treated cells: 0.1% LE 24 h, rotenone 40 AM added 5 min before probe, FCCP 15 min (FIG. 2B)
Procedure: Murine J774.2 macrophages were cultured in RPMI medium enriched with 10% fetal calf serum, 1% glutamine, and 1% penicillin-streptomycin. Cells were maintained in an incubator with temperature (378C) and CO2 (5%) control. Prior to experimental procedures, macrophages were seeded on 6-well plates at a concentration of 50,000 cells/ml.
LE was added to the cell culture at a concentration of 0.1% (w/v) TG (1 mg lipids/ml). The physiological range of TG in plasma is up to 1.5 mg/ml. The cells were incubated with the LE for 12, 24, or 48 h, and then washed twice with phosphate-buffered saline (PBS), and intracellular ROS and cell viability were measured. Other agents, such as antioxidants or cycloheximide (CH), were added as specified in the relevant figure legends.
Intracellular ROS were detected using a H2DCF-DA fluorescent probe. The cells were incubated with 25 AMH2DCF-DA for 30 min at room temperature. The fluorescence was measured in a FACS, with excitation at 488 nm and emission at 530 nm. Data were collected from 10,000 cells.

[6] = tested on: iNOS; test: iNOS mRNA level by RT-PCR; format: cell-based, rat; conditions: 0.1% LE, NAC 3 mmol/L, 48 h
Procedure: (§2) Total RNA was prepared using TriReagent. Analyses of mRNA levels of iNOS, eNOS, and gylceraldehyde-3-phosphate dehydrogenase (GAPDH) were performed using RT-PCR. The synthesis of cDNA was carried out using a Reverse-it (ABgene) first-strand synthesis kit. The reaction was conducted at 40-55° C. for 50 min. Finally, the reaction was terminated by incubation at 70° C. for 15 min. PCR amplification was performed in the Biometra T personal cycler instrument (Biometra). Cycles were performed at 94° C. for 30 s followed by 57° C. for 30 s and 72° C. for 30 s. cDNA was incubating with ReddyMix and gene-specific PCR primers, designed using Primer 3 software (Whitehead Institute for Biomedical Research).
(§3) The primers were synthesized by MBC: eNOS, forward primer, 5′-[…]-3′, and reverse primer, 5′-[…]-3′; INOS, forward primer, 5′[…]-3′, and reverse primer, 5′-[…]-3′. As a loading control, RNA was hybridized with a probe of the housekeeping gene, GAPDH, forward primer, 5′-[…]-3′, and reverse primer, 5′-[…]-3′.
(§4) PCR products were electrophoresed on […] gel containing 5 µL ethidium bromide, and the gel image was quantified using Doc-it gel image analysis program (UVP). The number of cycles for all the genes was selected within the linear part of a standard curve.

[7] = tested on: eNOS; test: eNOS protein expression, Western blot; format: cell-based, rat; conditions: 0.1% LE, NAC 3 mmol/L, 48 h, data not shown
Procedure: (§5) Cells were scraped and lysed in 750 μΛ of lysis buffer (20 mmol/L Tris, pH 7.8; 0.1% Nonidet P-40; 100 mmol/L NaCl; 50 mmol/L NaF; 10% glycerol, 1 mmol/L sodium orthovanadate). Lysates were centrifuged at 8500×g for 10 min. The supernatant was collected and used for the analysis of eNOS and iNOS.
(§6) Protein concentration was determined by the Bradford method (20) using bovine serum albumin as a standard. Samples were boiled for 5 min with SDS sample buffer; 60 μg of protein per sample was loaded onto a 10% SDS-polyacrylamide gel. Electroblots were blocked in Tris buffer NaCl-Tween (TBST) containing 5% skim milk powder at room temperature. Western blot analysis with a specific antibody against iNOS (Biomol), eNOS, p65, and p-c-Jun antibodies (Santa Cruz Biotechnology) was carried out. The antibodies were diluted in TBST buffer+5% skim milk and left overnight at 4° C. After a TBST washing procedure, the blots were incubated with horseradish-peroxidase labeled anti-rabbit antibody (Pierce) for 1 h at room temperature. The immune reaction was detected by enhanced chemiluminescence. Bands were quantified by scanning densitometry and expressed as arbitrary units.

[8] = tested on: eNOS; test: eNOS mRNA level by RT-PCR; format: cell-based, rat; conditions: 0.1% LE, NAC 3 mmol/L, 48 h
Procedure: as §2, §3, §4

[9] = tested on: iNOS; test: iNOS protein expression, Western blot; format: cell-based, rat; conditions: 0.1% LE, NAC 3 mmol/L, 48 h
Procedure: as §5, §6

[10] = tested on: rat isolated hepatocytes; test: Intracellular ROS, DCF fluorescence, flow cytometer; format: cell-based
Procedure: as §1, with “Isolated hepatocytes were seeded at 2 […]10^9 cells/L; after 4 h, the culture medium was replaced and cells were incubated for 48 h with 0.01-0.1% LE. Rotenone,” for “Rotenone,”
Cell membrane integrity (15), TG accumulation (22), and intracellular ROS levels (23, 24) were detected by flow cytometer (FACScalibur BD). Hepatocytes were stained with 2 mg/L DNA-interchelating dye propidium iodide, which is excluded by viable cells; with 1 mg/L Nile red, which accumulates in intracellular lipid droplets; or with […] dichlorodihydrofluorescein diacetate (H2DCF-DA), a probe that has high reactivity to hydrogen peroxide, lipid hydroperoxide, and hydroxyl radicals and low reactivity to superoxide anions (23,24). Fluorescence settings were as follows: excitation at 488 nm and emission at 575 nm for propidium iodide and Nile red and 488 nm and recorded at 530 nm for H2DCF-DA. Data were collected from 10,000 cells.

[11] = with or without 0.1% LE and BSO, 48 h (Table 6)
[12] = with or without 0.1% LE and rotenone, 48 h (Table 5)

Compound: O=C(O)CCCCC1CCSS1 (racemic) [racemic lipoic acid, lipoic acid]
- protection against TG-induced lipotoxicity (rate of cell death) ([1]; 0.1% LE): did not have any protective effect or even enhanced the rate of cell death

Compound: CCCCS(=N)(=O)CCC(N)C(=O)O (stereo not drawn) [BSO, buthionine sulfoximine]
- nitrite levels ([2]; cells treated with BSO): decreased
- Nitrite [2, 11]: 2.3 ± 0.3^c μmol/106 cells
- GSH ([3]; cells treated with BSO): decreased
- GSH [3, 11]: 2.2 ± 0.4 nmol/mg protein

Compound: C[C@@H]1C[C@@H]([C@H](O)CC2CC(=O)NC(=O)C2)C(=O)[C@@H](C)C1 [CH, cycloheximide]
- caspase-3 activity [4]: increased caspase-3 activity
- effect of protein-synthesis inhibition on TG cell-death effect ([1]; CH 0.1 AM then TG, 48 h (FIG. 6B)): does not prevent the cell-death effect of TG
- ROS production, CH treatment alone ([5]; CH 0.1 AM (FIG. 6)): decreased ROS production

Compound: N#CC(C#N)=NNc1ccc(OC(F)(F)F)cc1 [FCCP]
- ROS production in TG-treated cells [5]: decreased cellular ROS production but not as effectively as rotenone

Compound: CC(=O)N[C@@H](CS)C(=O)O [NAC, N-acetyl-L-cysteine]
- effect on LE-induced reduction of iNOS mRNA transcription [6]: attenuate the LE-induced reduction
- protection against TG-induced cell death ([1]; 0.1% LE, NAC 0.5 mM (FIG. 7B)): protected the cells against TG-induced cell death
- effect on LE-induced reduction of eNOS protein levels [7]: attenuate the LE-induced reduction
- effect on LE-induced reduction of eNOS mRNA transcription [8]: attenuate the LE-induced reduction
- effect on LE inhibition of nitrite levels [2]: increased nitrite levels compared with controls; also recorded: Inhibition of nitrite production was abolished
- effect on LE-induced reduction of iNOS protein levels [9]: attenuate the LE-induced reduction
- TG induced ROS production ([5]; 0.1% LE, NAC 0.5 mM (FIG. 7A)): suppressed

Compound: CC(=O)N[C@H](C(=O)O)C(C)(C)SN=O [SNAP, S-nitroso-N-acetyl-penicillamine]
- effect on ROS levels ([10]; SNAP in culture medium 48 h, presence or absence of LE): had no effect on ROS levels
- ROS (DCF fluorescence) ([10]; with or without 0.1% LE and SNAP, 48 h (Table 4)): SNAP 133 AU

Compound: CC(C)(C)OO [TBH, tert-butyl hydroperoxide]
- cell viability after 48 h of exposure ([1]; TBH 12 AM or LE 0.1%, 48 h (FIG. 5)): No loss in viability

Compound: Cc1c(C)c2c(c(C)c1O)CC[C@@](C)(CCC[C@H](C)CCC[C@H](C)CCCC(C)C)O2 [atocopherol, a-tocopherol]
- protection against TG-induced lipotoxicity (rate of cell death) ([1]; 0.1% LE): did not have any protective effect or even enhanced the rate of cell death

Compound: CC1=C(/C=C/C(C)=C/C=C/C(C)=C/C=C/C=C(C)/C=C/C=C(C)/C=C/C2=C(C)CCCC2(C)C)C(C)(C)CCC1 [h-carotene]
- protection against TG-induced lipotoxicity (rate of cell death) ([1]; 0.1% LE): did not have any protective effect or even enhanced the rate of cell death

Compound: CC(C)=CCC/C(C)=C/C=C/C(C)=C/C=C/C(C)=C/C=C/C=C(C)/C=C/C=C(C)/C=C/C=C(\C)CCC=C(C)C [lycopene]
- protection against TG-induced lipotoxicity (rate of cell death) ([1]; 0.1% LE): did not have any protective effect or even enhanced the rate of cell death

Compound: O=c1c(O)c(-c2ccc(O)c(O)c2)oc2cc(O)cc(O)c12 [quercetin]
- protection against TG-induced lipotoxicity (rate of cell death) ([1]; 0.1% LE): did not have any protective effect or even enhanced the rate of cell death

Compound: Oc1ccc(C=Cc2cc(O)cc(O)c2)cc1 [resveratrol]
- protection against TG-induced lipotoxicity (rate of cell death) ([1]; 0.1% LE): significantly decreased the rate of cell death
- effect on LE inhibition of nitrite levels [2]: partially prevented the reduction in nitrite synthesis

Compound: C=C(C)[C@H]1Cc2c(ccc3c2O[C@@H]2COc4cc(OC)c(OC)cc4[C@@H]2C3=O)O1 [rotenone]
- intracellular ROS levels ([10]; incubation with rotenone): increased intracellular ROS levels
- ROS (DCF fluorescence) [10, 12]: 530 ± 44^a AU
- Nitrite [2, 12]: 2.0 ± 0.2^c μmol/106 cells
- ROS production in TG-treated cells [5]: significantly decreased ROS production

Compound: TNF-α
- Nitrite ([2]; TNF-α (100 mU) 3 h, with or without 48 h preincubation with 0.1% LE): 2.1 ± 0.1 μmol/106 cells
- Nitrite ([2]; TNF-α (100 mU) 6 h, with or without 48 h preincubation with 0.1% LE): 2.1 ± 0.2 μmol/106 cells
- Nitrite ([2]; TNF-α (100 mU) 9 h, with or without 48 h preincubation with 0.1% LE): 4.3 ± 0.2 μmol/106 cells
- Nitrite ([2]; TNF-α (100 mU) 12 h, with or without 48 h preincubation with 0.1% LE): 6.5 ± 0.2 μmol/106 cells
